The results in this text go back to patent US10683293B2, “Optionally fused heterocyclyl-substituted derivatives of pyrimidine useful for the treatment of inflammatory, metabolic, oncologic and autoimmune diseases” (NUEVOLUTION A/S, priority 2014, dated 2020).

In test [1] the target is T1, human RORγt (Ligand Binding Domain) (Homo sapiens, UniProt P51449).
T1 construct: purchased Crelux (Planegg, Germany) batch no PC5032-1
T1 sequence (P51449 269-508 limits assumed): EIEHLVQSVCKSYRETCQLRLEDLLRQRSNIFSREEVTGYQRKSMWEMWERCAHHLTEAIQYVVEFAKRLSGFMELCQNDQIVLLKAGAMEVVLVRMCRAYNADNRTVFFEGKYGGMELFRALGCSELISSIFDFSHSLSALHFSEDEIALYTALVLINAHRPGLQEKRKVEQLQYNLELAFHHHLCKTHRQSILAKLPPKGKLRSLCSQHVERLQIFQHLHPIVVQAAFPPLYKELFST
The test can be described thus: Fluorescence Polarization (FP) Assay. Conditions: 100 nM human RORγt LBD, 25 nM TAMRA probe, values are activity range bounds. The gist of the method:
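Binding to the RORγt ligand-binding domain was followed by FP. Displacement of a TAMRA-tagged RORγt ligand tracer (910 g/mol) was measured, with DMSO-only wells as negative control.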

The target of test [2] is T2, ligand binding domain of human RORγ (Homo sapiens, UniProt P51449).
T2 construct: host or cells: HEK293t
T2 sequence (P51449 269-508 limits assumed): T1 sequence (P51449 269-508 limits assumed)
Kind of test: RORγ Reporter Assay (Gal4). The format is cell-based. Conditions: for inhibition at 1 µM: HEK-293T, 1 μM test compound, HEK293t RORγ reporter cells, 24 hour, read-out: Gal4 activity range @ 1 μM (% inhibition); for Gal4 activity range @ 0.1 μM (% inhibition): RORγ Reporter Assay (Gal4), HEK293t reporter cells, compound at 0.1 μM, values are activity range bounds. The protocol:
The activity of the compounds was evaluated using a Fluorescence Polarization (FP) Assay and, RORγ Reporter assay (also referred to as Gal4 assay). The FP assay is an in vitro assay monitoring binding within the ligand binding pocket. The RORγ and the Th17 assays (another suitable assay) are both cell-based assays monitoring functional activity of the compound assayed.
RORγ Reporter Assay (Gal4)
Cell-based RORγ functional assays were performed using a commercially available assay product (INDIGO Biosciences, State College, Pa., USA; product # IB04001). The RORγ reporter cells are HEK293t cells transfected with one vector that provides high level constitutive expression of a hybrid protein comprised of the yeast Gal4-DNA binding domain fused to the ligand binding domain of human RORγ, and a second vector comprising the firefly luciferase cDNA functionally linked to the upstream activation sequence (UAS) of yeast Gal4. A suspension of RORγ Reporter Cells was prepared using the protocol and culture medium provided in the kit product, and 100 μl of the Reporter Cell suspension was then dispensed into wells of a white, collagen-treated, 96-well assay plate. Concentrated stocks of test compounds were prepared in DMSO, then further diluted using media provided in the kit to generate ‘2×-concentration’ treatment media. 100 μl of medium for each respective treatment concentration dispensed into triplicate assay wells, thereby combining with the reporter cells. All media formulations contained 10% charcoal stripped Fetal Bovine Serum, but are otherwise proprietary to INDIGO Biosciences. Final treatment concentrations for each test compound were 1,000 nM and 100 nM, each with 0.1% residual DMSO. Separate control treatments were media supplemented with vehicle only (0.1% DMSO) to determine the constitutive level of RORγ activity in the reporter cells, and the reference inverse-agonist ursolic acid (f.c. 6,000 nM to 8.2 nM in 3-fold decrements) to establish a positive control inverse-agonist dose response. Assay plates were placed in a 37° C., 5% CO2, 85% humidity incubator for 24 hour. Treatment media were then discarded, 100 μl of luciferase detection reagent was added to each well, and relative light units (RLUs) were quantified from each assay well using a plate reading luminometer. Values of average RLU+/−standard deviation were computed for all treatment sets, followed by the calculations of fold-reduction: [Average RLUVehicle/Average RLUTest Cmpd]. Percent-reduction of RORγ activity in response to respective test compound treatments was calculated: [100*(1−[Ave RLUTest Cmpd/Ave RLUVehicle)] where the theoretical minimum reduction (0% reduction) derives from Vehicle treatment only, no treatment compound. In some aspects it may be of interest to provide compounds with selective modulation of RORγ for example compounds that are selective to RORγ over RORα, compounds that are selective for RORγ versus RORPβ, and compounds that are selective for RORγ versus BOTH RORα and RORPβ. It may also be of interest to provide compounds that are selective for RORγ versus further nuclear hormone receptors such as CAR1, FXR, GR, LXRα, LXRβ, PPARα, PXR, RARα, RXRα, TRα, VDR. It is apparent to those skilled in the art that these nuclear hormone receptors are merely examples, and that selectivity against other nuclear receptors may also be of interest. It may for example be of interest to provide compounds that modulate RORγ and one or more further nuclear hormone receptors, as well as compounds that modulate both RORγ and RORα, or RORγ and RORβ. It may also be of interest to provide compounds that modulate RORγ and BOTH RORα and RORP, as well as compounds that modulate both RORγ and one or more further nuclear hormone receptors such as CAR1, FXR, GR, LXRα, LXRβ, PPARα, PXR, RARα, RXRα, TRα, VDR. It is apparent to those skilled in the art that these nuclear hormone receptors are merely examples, and that modulation of even other nuclear receptors may also be of interest. […]

Molecule `Fc1c(NCc2ccc(Cc3nnn[nH]3)cc2)ncnc1N(Cc1ccc(C(F)(F)F)cc1)C1CC1` [Example T1, N6-cyclopropyl-5-fluoro-N4-[[4-(1H-tetrazol-5-ylmethyl)phenyl]methyl]-N6-[[4-(trifluoromethyl)phenyl]methyl] pyrimidine-4,6-diamine] displayed an IC50 in test [1] of less than 0.5 µM. In test [2], the inhibition at 1 µM was greater than 80% and the “Gal4 activity range @ 0.1 μM (% inhibition)” value is recorded as greater than 50 % inhibition.
`O=S(=O)(NC1CC1)c1ccc(CNc2ncnc(N(Cc3ccc(C(F)(F)F)cc3)C3CC3)c2F)cc1` [Example A9, N-cyclopropyl-4-[[[6-[cyclopropyl-[[4-(trifluoromethyl)phenyl]methyl]amino]-5-fluoro-pyrimidin-4-yl]amino]methyl]benzenesulfonamide] gave an IC50 in test [1] of less than 0.5 µM. Also, in test [2], the inhibition at 1 µM was greater than 80% and the “Gal4 activity range @ 0.1 μM (% inhibition)” value is given as greater than 20 % inhibition.
Take `CCOc1ccc(CN(c2ncnc(NCc3ccc(CC(N)=O)cc3)c2F)C2CC2)cc1` [Example A54, 2-[4-[[[6-[cyclopropyl-[(4-ethoxyphenyl)methyl]amino]-5-fluoro-pyrimidin-4-yl]amino]methyl]phenyl]acetamide]: in test [1], the half-maximal inhibitory concentration (IC50) was less than 0.5 µM. Moreover, in test [2], the inhibition at 1 µM was greater than 80% and the “Gal4 activity range @ 0.1 μM (% inhibition)” value is on record as greater than 50 % inhibition.
Turning to `NC(=O)Cc1ccc(CNc2ncnc(N(Cc3cc(C(F)(F)F)ccn3)C3CC3)c2F)cc1` [Example A178, 2-[4-[[[6-[cyclopropyl-[[4-(trifluoromethyl)-2-pyridyl]methyl]amino]-5-fluoro-pyrimidin-4-yl]amino]methyl]phenyl]acetamide], the half-inhibitory concentration (IC50) in test [1] was less than 0.5 µM. In test [2], the inhibition at 1 µM was greater than 20% and the “Gal4 activity range @ 0.1 μM (% inhibition)” value was greater than 0 % inhibition.
The like results for `O=C(O)C[C@@H](CCc1ccccc1)Nc1ncnc(N(Cc2ccc(C(F)(F)F)cc2)C2CC2)c1F` [Example A181, (3R)-3-[[6-[cyclopropyl-[[4-(trifluoromethyl)phenyl]methyl]amino]-5-fluoro-pyrimidin-4-yl]amino]-5-phenyl-pentanoic acid] were, in that order, less than 0.5 µM, greater than 80% and greater than 0 % inhibition.
The like results for `CC(c1ccc(C(F)(F)F)nc1)N(c1ncnc(NCc2ccc(CC(N)=O)cc2)c1F)C1CC1` (stereo not drawn) [Example A103, 2-[4-[[[6-[cyclopropyl-[1-[6-(trifluoromethyl)-3-pyridyl]ethyl]amino]-5-fluoro-pyrimidin-4-yl]amino]methyl]phenyl]acetamide] were, in that order, less than 1 µM, greater than 80% and greater than 0 % inhibition.
The molecule `NC(=O)Cc1ccc(CNc2ncnc(N(Cc3ccc(C(F)(F)F)cc3)C3CCC3)c2F)cc1` [Example A15, 2-[4-[[[6-[cyclobutyl-[[4-(trifluoromethyl)phenyl]methyl]amino]-5-fluoro-pyrimidin-4-yl]amino]methyl]phenyl]acetamide] registered an IC50 in test [1] of less than 0.5 µM. Also, in test [2], the inhibition at 1 µM was greater than 80% and the “Gal4 activity range @ 0.1 μM (% inhibition)” value is greater than 20 % inhibition.
Turning to `NC(=O)CC1CC(CNc2ncnc(N(Cc3ccc(C(F)(F)F)cc3)C3CC3)c2F)C1` (stereo not drawn) [Example A95, 2-[3-[[[6-[cyclopropyl-[[4-(trifluoromethyl)phenyl]methyl]amino]-5-fluoro-pyrimidin-4-yl]amino]methyl]cyclobutyl] acetamide], the half-inhibitory concentration (IC50) in test [1] was less than 1 µM. Further, in test [2], the inhibition at 1 µM is greater than 80% and the “Gal4 activity range @ 0.1 μM (% inhibition)” value is greater than 20 % inhibition.
On to `CN(Cc1ccc(C(F)(F)F)cc1)c1ncnc(NCc2ccc(CC(N)=O)cc2)c1F` [Example A19, 2-[4-[[[5-fluoro-6-[methyl-[[4-(trifluoromethyl)phenyl]methyl]amino]pyrimidin-4-yl]amino]methyl]phenyl]acetamide], for which the IC50 in test [1] was less than 0.5 µM. For the same molecule, in test [2], the inhibition at 1 µM is greater than 80% and the “Gal4 activity range @ 0.1 μM (% inhibition)” value is recorded as greater than 20 % inhibition.
